Laboratory results: article PMC11082943, “Rpt5-Derived Analogs Stimulate Human Proteasome Activity in Cells and Degrade Proteins Forming Toxic Aggregates in Age-Related Diseases” (International Journal of Molecular Sciences, 2024)
No end group written: not given here.

Tests used:
[1] = system: T1, proteasome in HEK293T cells; experiment: 20S activity in cellulo (TAS3 assay); format: cell-based, human; settings: 10 µM TAS3 in KRBH buffer, 30 min preincubation with compound, 37 °C, linear regression of last 60 min, triplicate, Btz 10 µM
T1 construct: HEK293T cells were seeded in black 96-well plates; endogenous in cells; host or cells: HEK293T
Protocol: HEK293T cells were seeded in black 96-well plates at 7 × 10^3 cells/well and incubated in DMEM supplemented with 10% FBS and penicillin/streptomycin (100 units/mL/100 µg/mL) at 37 °C with 5% CO2. […] After this time, the cells were treated with the tested peptides/peptidomimetics (1–50 µM in medium). Each sample was prepared in triplicate. The plates were incubated for an additional 30 min. Subsequently, the medium was removed, and 100 µL of 10 µM TAS3 in Krebs-Ringer Bicarbonate (KRBH) buffer, containing the tested modulator, was added to the wells. The fluorescence intensity was monitored every 2 min over a 90 min period at 37 °C using a Tecan Infinite M200 Pro plate reader (Tecan Trading AG, Männedorf, Switzerland) with the excitation and emission wavelengths set at 485 nm and 535 nm, respectively. A linear regression analysis was performed for the last 60 min of the measurement. Any increase or decrease in activity of the 20S was compared to that of the control (cells incubated with TAS3 probe in KRBH buffer) and calculated based on the change in fluorescence units per time [40]. To determine statistical significance, ordinary one-way ANOVA was used.

HEK293T cells = format: in vitro ADME, human
Excerpt: One of the obstacles in the development of peptide drugs is their low cell permeability. To evaluate if the peptide-based proteasome activators can cross the cell membrane, we synthesized an analog of peptide 7; labeled the ε-amine group of the N-terminal lysine residue with a fluorescent dye, 5/6-carboxytetramethylrhodamine (TAMRA); and used confocal microscopy to detect its entry into cells. […] Therefore, 7 was combined with the HIV-1 TAT protein-derived, membrane-penetrating peptide sequence GRKKRRQRRR (TAT 48–57), separated by the 20S proteasome recognition sequence, LLVY.
TAMRA fluorescent tags were attached to the N-terminal […] group of the lysine residue of compound 7 and the ε-amino group of the corresponding lysine residue in compound TAT-7 before the final deprotection and cleavage of the compounds from the solid support. To achieve the selective attachment of the label to the proper ε-amino group, the Fmoc-Lys(Mtt)-OH was used in this position during peptide elongation. […]
Human embryonic kidney cells (HEK293T, a generous gift of Prof. Grzegorz Węgrzyn, Faculty of Biology, University of Gdańsk, Gdańsk, Poland) were maintained in Dulbecco’s Modified Eagle Medium (DMEM) supplemented with 10% Fetal Bovine Serum (FBS) and penicillin/streptomycin (100 units/mL/100 µg/mL), at 37 °C with 5% CO2. […] The images were merged, and the colocalization of the dye emission was analyzed.

Row | Compound | ΔRFU/min (change in fluorescence units per minute, TAS3 probe) [1] [RFU/min] | cell permeability / cellular internalization (result in words) (HEK293T cells)
1 | CC(C)C[C@H](NC(=O)[C@H](Cc1ccccc1)NC(=O)c1cnccn1)B(O)O [Btz, bortezomib] | 3.7 | –
2 | KKKANLQYYA [compound 7] | – | only slightly cell permeable
